Reference: paper PMC5320518, “Novel Liver-targeted conjugates of Glycogen Phosphorylase Inhibitor PSN-357 for the Treatment of Diabetes: Design, Synthesis, Pharmacokinetic and Pharmacological Evaluations” (Scientific Reports, 2017)
Counter-ions that a name gives are not always drawn. Like-named read-outs stand apart in the source and are kept apart here.

Assays:
HepG2 cells = test: Glycogenolysis inhibition in HepG2 cells; type: cell-based, human; details: read-out: IC50 (glycogenolysis inhibition, HepG2 cells)
Description: (§1) To evaluate the effects of all compounds in cells, the glycogenolysis assays were established in both rat and human liver cells based on the published method. […] The inhibitory activities of the derivatives of PSN-357 (e.g. 25–28) were also explored. It is not surprising that the derivatives still retained micromolar inhibitory activities. Introduction of steric bulks to the hydroxyl group (e.g. 33, 40, 42, 48) led to a complete loss of activity. Data analysis indicated no clear SAR for the substitutents in the cell-based assays.
(§2) The inhibition of hepatic glycogenolysis was monitored by the measurement of liver glycogen, which was done quantitatively by the anthrone reagent (Sigma) colorimetric method based on the published method. Isolated rat hepatocytes or HepG2 cells (Sigma) were treated with the test compound or DMSO solvent (final concentration, 0.10%), followed by 60-min incubation with 0.3 nM glucagon (GGN). Assays were terminated by centrifugation, and cells were digested with 30% KOH followed by glycogen determination. The IC50 values were estimated by fitting the inhibition data to a dose-dependent curve using a logistic derivative equation.

isolated rat hepatocytes = test: Glycogenolysis inhibition in isolated rat hepatocytes; type: cell-based; details: mean ± S.D. of three, NI means no inhibition
Description: as §1, §2

[1] = target: T1, rabbit muscle GPa (RMGPa) (Oryctolagus cuniculus, UniProt P00489); test: RMGPa inhibition assay (phosphate release from glucose-1-phosphate); type: biochemical; details: for IC50: mean ± S.D. of three determinations, NI means no inhibition
T1 sequence (P00489 2-843 limits assumed): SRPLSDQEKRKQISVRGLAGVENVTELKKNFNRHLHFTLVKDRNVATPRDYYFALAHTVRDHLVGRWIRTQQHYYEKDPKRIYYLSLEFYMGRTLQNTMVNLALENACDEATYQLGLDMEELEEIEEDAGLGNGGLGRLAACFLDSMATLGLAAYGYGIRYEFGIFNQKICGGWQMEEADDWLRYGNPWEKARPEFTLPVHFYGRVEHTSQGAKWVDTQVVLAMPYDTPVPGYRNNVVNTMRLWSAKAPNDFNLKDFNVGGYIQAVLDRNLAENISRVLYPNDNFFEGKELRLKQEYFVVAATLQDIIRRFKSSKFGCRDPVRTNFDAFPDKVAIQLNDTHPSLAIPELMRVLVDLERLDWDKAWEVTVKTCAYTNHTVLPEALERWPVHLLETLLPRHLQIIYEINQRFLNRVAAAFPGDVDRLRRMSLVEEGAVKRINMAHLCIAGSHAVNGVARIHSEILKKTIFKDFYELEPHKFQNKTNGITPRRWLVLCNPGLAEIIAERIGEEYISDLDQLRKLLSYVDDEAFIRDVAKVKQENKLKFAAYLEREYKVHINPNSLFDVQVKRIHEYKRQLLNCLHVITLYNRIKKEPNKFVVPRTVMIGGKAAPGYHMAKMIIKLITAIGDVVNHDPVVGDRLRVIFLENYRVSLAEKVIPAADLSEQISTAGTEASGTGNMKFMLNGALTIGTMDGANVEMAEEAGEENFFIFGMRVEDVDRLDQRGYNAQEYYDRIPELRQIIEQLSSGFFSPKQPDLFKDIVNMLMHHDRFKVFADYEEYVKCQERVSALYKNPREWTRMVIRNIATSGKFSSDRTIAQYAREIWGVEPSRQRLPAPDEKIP
Description: All the compounds were evaluated for their inhibitory activity against rabbit muscle GPa (RMGPa). The activity of RMGPa was measured through detecting the release of phosphate from glucose-1-phosphate in the direction of glycogen synthesis. CP-91149, a well-known allosteric GP inhibitor, which shares the same binding site with PSN-357, was used as the positive control and the results are summarized in Table 1[21]. […] This remarkable loss of activity was probably due to the direct steric interference by such bulky substituent of cholic acid group. […] The results is consistent with the SARs of PSN-357 that the hydroxyl of piperidine is not an essential group for the GP inhibitory activity that could be modified slightly.
The inhibitory activity of the test compounds against rabbit muscle glycogen phosphorylase a (GPa) was monitored using microplate reader (BIO-RAD) based on the published method. In brief, GPa activity was measured in the direction of glycogen synthesis by the release of phosphate from glucose-1-phosphate. Each test compound was dissolved in DMSO and diluted at different concentrations for IC50 determination. The enzyme was added into 100 μL of buffer containing 50 mM Hepes (pH = 7.2), 100 mM KCl, 2.5 mM MgCl2, 0.5 mM glucose-1-phosphate, 1 mg/mL glycogen and the test compound in 96-well microplates (Costar). After the addition of 150 μL of 1 M HCl containing 10 mg/mL ammonium molybdate and 0.38 mg/mL malachite green, reactions were run at 22 °C for 25 min, and then the phosphate absorbance was measured at 655 nm. The IC50 values were estimated by fitting the inhibition data to a dose-dependent curve using a logistic derivative equation.

[2] = Stability in simulated intestinal fluid (SIF); type: in vitro ADME; details: SIF pH 6.79 with pancreatin, 2 μM, 37 °C
Description: (§3) All the conjugates were tested for their chemical and metabolic stability in multiple assays, including simulated gastric fluid (SGF), simulated interstinal fluid (SIF), mouse plasma, and mouse liver microsome (MLM).
(§4) For the stability in SGF (Fig. 8) and SIF (Fig. 9), the conjugates could be divided into three groups: (1) stable conjugates 2, 6 and 9. […] The two conjugates were degraded within 6 h and 1 h in SGF and SIF, respectively, with alomost no conjugates at the end of the 24 h incubation in both SGF and SIF; (3) complicated conjugates 3, 4, 5 and 8.
(§5) The simulated gastrointestinal fluids were prepared according to USP specifications. For SGF, NaCl (0.12 g) and pepsin (0.18 g, from porcine stomach mucosa) was dissolved in HCl (0.42 mL) and sufficient H2O was added to make 60 mL. The pH of the test solution was determined as 1.21 by pH meter. For the SIF, KH2PO4 (0.408 g) and pancreatin (0.6 g, from porcine pancreas) was dissolved in H2O (60 mL). The pH of the test solution was determined as 6.79 by pH meter. Each test compound was dissolved in DMSO and diluted to a final concentration of 2 μM in SIF and SGF. The final concentrations of DMSO and CH3CN in the incubation mixture were 0.2% and 0.45%. Aliquots of these solutions were pipetted into glass tubes, and placed in a 37 °C shaking water bath. Test samples at corresponding time point (1, 2, 6, 24 h) were removed at the end of incubation time and immediately mixed with 800 μL of cold acetonitrile containing 500 ng/mL tolbutamide (internal standard). Samples were subjected to centrifuge at 4000 rpm, 4 °C for 20 min. Aliquots 60 μL of supernatant was combined with 120 μL water for LC-MS/MS analysis.

[3] = Stability in mouse liver microsomes (MLM); type: in vitro ADME; details: C57BL/6, pH 7.4, n = 3
Description: Additionally, the compounds’ stability in microsome were evaluated by measuring the rate of compounds consumpation in MLM and the results are shown in Table 3.
The microsomal pellet was suspended in potassium phosphate buffer (100 mM, pH 7.4), 10 μM test compound or positive control (diclofenac) was added. Liver microsomes from C57BL/6 mice (BD Gentest) were pooled. The mixture of microsome solution and compound was incubated at 37 °C for about 10 min in the presence of a NADPH-regenerating system, consisting of 0.02 M DL-isocitric acid (trisodium salt), 0.1 mg/mL isocitrate dehydrogenase and 1 mM NADPH. The addition of ice-cold CH3CN (including 100 ng/mL tolbutamide as internal standard) terminated the reaction. The mixture was vortexed for approx (30 s), centrifuged (20 min, 4000 rpm) and the supernatant was collected and analysed by LC-MS/MS method.

[4] = Stability in simulated gastric fluid (SGF); type: in vitro ADME; details: SGF pH 1.21 with pepsin, 2 μM, 37 °C
Description: as §3, §4, §5

[5] = Homo sapiens, HepG2, 1 h, HepG2 cells, 60-min incubation with 0.3 nM glucagon, mean ± S.D. of three, NI means no inhibition
[6] = Hepatocyte, 1 h, isolated rat hepatocytes, 60-min incubation with 0.3 nM glucagon, read-out: IC50 (glycogenolysis inhibition, rat hepatocytes)
[7] = Rattus norvegicus, Hepatocyte, 1 h, read-out: IC50 (glycogenolysis inhibition, rat hepatocytes), isolated rat hepatocytes, 60-min incubation with 0.3 nM glucagon

## C[C@H](N)C(=O)OC1CCN(C(=O)[C@H](Cc2ccc(F)cc2)NC(=O)c2cc3cc(Cl)ncc3[nH]2)CC1 [Compound 26]
HepG2 cells; [5]
  IC50: 6.99 ± 2.1 µM
Isolated rat hepatocytes; [6]
  IC50: 9.79 ± 9.65 µM
[1]
  IC50: 0.56 ± 0.043 µM

## CC(C)(C)OC(=O)C[C@H](NC(=O)OC(C)(C)C)C(=O)OC1CCN(C(=O)[C@H](Cc2ccc(F)cc2)NC(=O)c2cc3cc(Cl)ncc3[nH]2)CC1 [Compound 25]
HepG2 cells; [5]
  IC50: 15.1 ± 4.11 µM
other
  melting point: 118 to 120 °C
Isolated rat hepatocytes; [6]
  IC50: 10.2 ± 1.13 µM
[1]
  IC50: 0.81 ± 0.077 µM

## CC(NC(=O)C(NC(=O)CCC(C)C1CCC2C3C(O)CC4CC(O)CCC4(C)C3CC(O)C12C)C(C)C)C(=O)OC1CCN(C(=O)C(Cc2ccc(F)cc2)NC(=O)c2cc3cc(Cl)ncc3[nH]2)CC1 (stereo not shown) [Conjugate 7]
HepG2 cells; [5]
  IC50: 11.7 ± 3.8 µM
[2]
  time within which degraded in SIF: ≤ 1 h
[3]
  CLint scaled at 10 μM: 1180 mL/min/kg
  half-life at 10 μM: 4.7 min
  microsomal CLint at 10 μM: 297 µL/min/mg
Isolated rat hepatocytes; [7]
  IC50: 42.1 ± 10.9 µM
[1]
  IC50: 6.07 ± 0.27 µM
[4]
  time within which degraded in SGF: ≤ 6 h

## O=C(CCc1ccccc1/N=N/c1ccc(C(=O)O)cc1)OC1CCN(C(=O)[C@H](Cc2ccc(F)cc2)NC(=O)c2cc3cc(Cl)ncc3[nH]2)CC1 [Compound 48]
HepG2 cells; [5]
  IC50: 9.18 ± 7.42 µM
other
  melting point: 127 to 129 °C
Isolated rat hepatocytes; [6]
  IC50: 35 ± 3.46 µM
[1]
  IC50: 3.11 ± 0.05 µM

## N[C@@H](CO)C(=O)OC1CCN(C(=O)[C@H](Cc2ccc(F)cc2)NC(=O)c2cc3cc(Cl)ncc3[nH]2)CC1 [Compound 28]
HepG2 cells; [5]
  IC50: 2.88 ± 0.16 µM
Isolated rat hepatocytes; [6]
  IC50: 13.6 ± 0.23 µM
[1]
  IC50: 0.52 ± 0.01 µM
[1]; vs PSN-357
  fold less potent than PSN-357 (RMGPa): approximately 1.25 fold

## CC(CCC(=O)NC(Cc1ccccc1)C(=O)NC(CCCCNC(=O)OCC1c2ccccc2-c2ccccc21)C(=O)OC1CCN(C(=O)C(Cc2ccc(F)cc2)NC(=O)c2cc3cc(Cl)ncc3[nH]2)CC1)C1CCC2C3C(O)CC4CC(O)CCC4(C)C3CC(O)C12C (stereo not shown) [Compound 42]
HepG2 cells; Homo sapiens, HepG2, 1 h
  IC50: 180 ± 51.2 µM
other
  melting point: 149 to 151 °C
Isolated rat hepatocytes; [6]
  IC50: 5.56 ± 2.41 µM
[1]
  IC50: 15.4 ± 0.89 µM

## O=C(O)Cc1ccccc1Nc1c(Cl)cccc1Cl [Diclofenac, diclofenac, reference compound]
[3]
  CLint scaled at 10 μM: 208 mL/min/kg
  half-life at 10 μM: 26.3 min
  microsomal CLint at 10 μM: 52.6 µL/min/mg

## CC(C)[C@H](N)C(=O)OC1CCN(C(=O)[C@H](Cc2ccc(F)cc2)NC(=O)c2cc3cc(Cl)ncc3[nH]2)CC1 [Compound 27]
HepG2 cells; [5]
  IC50: 16.8 ± 3.71 µM
Isolated rat hepatocytes; [6]
  IC50: 14.7 ± 4.99 µM
[1]
  IC50: 0.88 ± 0.17 µM

## CC(C)[C@H](N)C(=O)OC1CCN(C(=O)[C@H](Cc2ccc(F)cc2)NC(=O)c2cc3cc(Cl)ncc3[nH]2)CC1 (as salt: hydrochloride) [Compound 27]
other
  melting point: 214 to 216 °C

## CN(C)C(=O)[C@H](O)[C@H](Cc1ccccc1)NC(=O)c1cc2cc(Cl)ccc2[nH]1 [CP-91149, reference compound]
HepG2 cells; HepG2 cells, 60-min incubation with 0.3 nM glucagon, mean ± S.D. of three, NI means no inhibition
  IC50: 2.53 ± 0.78 µM
Isolated rat hepatocytes; isolated rat hepatocytes, 60-min incubation with 0.3 nM glucagon, read-out: IC50 (glycogenolysis inhibition, rat hepatocytes)
  IC50: 3.08 ± 1.16 µM
[1]
  IC50: 0.09 ± 0.04 µM

## C[C@H](NC(=O)CC[C@@H](C)[C@H]1CC[C@H]2[C@@H]3[C@H](O)C[C@@H]4C[C@H](O)CC[C@]4(C)[C@H]3C[C@H](O)[C@]12C)C(=O)OC1CCN(C(=O)[C@H](Cc2ccc(F)cc2)NC(=O)c2cc3cc(Cl)ncc3[nH]2)CC1 [Conjugate 3]
[2]
  time within which degraded in SIF: ≤ 1 h
[3]
  CLint scaled at 10 μM: 200 mL/min/kg
  half-life at 10 μM: 27.4 min
  microsomal CLint at 10 μM: 50.6 µL/min/mg
Isolated rat hepatocytes; [7]
  IC50: 632 ± 99.4 µM
[1]
  IC50: 40.5 ± 15.7 µM
[4]; 24 h incubation
  stability in SGF (in words): relatively stable

## CC(C)(C)OC(=O)N[C@@H](Cc1ccccc1)C(=O)N[C@@H](CCCCNC(=O)OCC1c2ccccc2-c2ccccc21)C(=O)OC1CCN(C(=O)[C@H](Cc2ccc(F)cc2)NC(=O)c2cc3cc(Cl)ncc3[nH]2)CC1 [Compound 40]
HepG2 cells; [5]
  IC50: 33.6 ± 12.2 µM
Isolated rat hepatocytes; [6]
  IC50: 38.4 ± 5.76 µM
[1]
  IC50: 3.44 ± 0.22 µM

## CC(C)[C@H](NC(=O)OC(C)(C)C)C(=O)N[C@@H](C)C(=O)OC1CCN(C(=O)[C@H](Cc2ccc(F)cc2)NC(=O)c2cc3cc(Cl)ncc3[nH]2)CC1 [Compound 33]
other
  melting point: 151 to 153 °C
Isolated rat hepatocytes; [6]
  IC50: 11.1 ± 3.67 µM
[1]
  IC50: 27 ± 6.39 µM

## CC(C)(C)OC(=O)c1ccc(/N=N/c2ccccc2CCC(=O)OC2CCN(C(=O)[C@H](Cc3ccc(F)cc3)NC(=O)c3cc4cc(Cl)ncc4[nH]3)CC2)cc1 [Compound 47]
other
  melting point: 123 to 125 °C
Isolated rat hepatocytes; [6]
  IC50: 97.6 ± 1.1 µM
